Bounds are passed on as bounds.

For assay [1], the target named is T1, BRAF G466V (Homo sapiens, UniProt P15056, G466V).
T1 construct: expressed in transfected cells
Put plainly: Cellular assay of target protein degradation, T-Rex 293 cells stably transfected with HA-BRAF G466V (HA immunofluorescence, high content imaging). Type of assay: cell-based. The conditions noted are these: T-Rex 293 HA-BRAF G466V; for DC50: half maximal degradation, read-out: BRaf G466V DC50; for Dmax: maximum degradation observed. The method in brief: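 Doxycycline-induced (0.75 ng/mL) cells treated 24 h at 37 °C with compound from 30 nM to 3 pM (0.1% DMSO). After fixation and permeabilisation, HA-tagged BRAF G466V immunostained and quantified by high-content imaging. DC50 and Dmax (percent of control) derived.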

Assay [2] addresses T2, BRAF V600E (Homo sapiens, UniProt P15056, V600E).
T2 construct: expressed in transfected cells
In words: Cellular assay of target protein degradation, T-Rex 293 cells stably transfected with HA-BRAF_V600E (HA immunofluorescence, high content imaging). It is filed as cell-based. The conditions noted are these: T-Rex 293 HA-BRAF V600E; for DC50: half maximal degradation, read-out: BRaf V600E DC50; for Dmax: maximum degradation observed. The method in brief: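 Doxycycline-induced (1 ng/mL) T-Rex 293 cells expressing HA-BRAF V600E treated 24 h at 37 °C with compound at 1 μM to 0.1 nM final in 0.1% DMSO. Remaining HA-tagged protein quantified by fixed-cell anti-HA immunofluorescence and high-content imaging; DC50 and Dmax (% of control) derived.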

T2 sequence (P15056 whole entry V600E): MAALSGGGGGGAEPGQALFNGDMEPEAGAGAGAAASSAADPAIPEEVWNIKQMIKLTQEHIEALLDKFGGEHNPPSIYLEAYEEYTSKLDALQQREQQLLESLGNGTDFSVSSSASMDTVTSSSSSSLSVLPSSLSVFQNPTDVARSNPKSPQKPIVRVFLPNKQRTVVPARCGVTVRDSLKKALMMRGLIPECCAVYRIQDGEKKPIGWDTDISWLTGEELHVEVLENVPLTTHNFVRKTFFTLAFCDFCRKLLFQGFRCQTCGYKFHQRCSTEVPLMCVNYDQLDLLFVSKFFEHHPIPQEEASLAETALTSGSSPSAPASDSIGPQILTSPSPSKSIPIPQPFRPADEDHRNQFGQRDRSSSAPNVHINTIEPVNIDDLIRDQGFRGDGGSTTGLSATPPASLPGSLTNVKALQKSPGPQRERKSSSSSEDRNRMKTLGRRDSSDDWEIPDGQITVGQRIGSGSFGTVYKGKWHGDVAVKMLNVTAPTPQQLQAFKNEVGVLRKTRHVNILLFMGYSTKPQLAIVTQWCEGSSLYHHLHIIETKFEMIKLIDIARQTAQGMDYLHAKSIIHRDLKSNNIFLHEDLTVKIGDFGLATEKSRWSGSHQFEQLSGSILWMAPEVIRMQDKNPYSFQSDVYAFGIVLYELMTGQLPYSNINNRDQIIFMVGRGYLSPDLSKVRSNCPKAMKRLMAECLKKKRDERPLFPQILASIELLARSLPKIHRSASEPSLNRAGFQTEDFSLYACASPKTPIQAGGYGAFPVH
T1 sequence (P15056 whole entry G466V): as the sequence (P15056 whole entry V600E) above, with G466V, E600V counted along it

As to `O=C1CC[C@@H](N2Cc3cc(C4CCN(CC5CCN(c6ccc(-c7cnc8[nH]cc(C(=O)c9c(F)ccc(NS(=O)(=O)N%10CCC(F)(F)C%10)c9F)c8c7)cc6)CC5)CC4)ccc3C2=O)C(=O)N1` [Compound 233, N-{3-[5-(4-{4-[(4-{2-[(3R)-2,6-dioxopiperidin-3-yl]-1-oxo-2,3-dihydro-1H-isoindol-5-yl}piperidin-1-yl)methyl]piperidin-1-yl}phenyl)-1H-pyrrolo[2,3-b]pyridine-3-carbonyl]-2,4-difluorophenyl}-3,3-difluoropyrrolidine-1-sulfonamide], in assay [1], the 50% degradation concentration (DC50) was 1 to 10 nM and the Dmax was greater than 70%. In addition, in assay [2], the half-maximal degradation concentration (DC50) was 5 to 50 nM and the greatest degradation seen (Dmax) lay in the range of 35 to 70%.
In the case of `CCCS(=O)(=O)Nc1ccc(F)c(C(=O)c2c[nH]c3ncc(-c4ccc(N5CCC(CN6CCC(c7ccc8c(c7)CN([C@H]7CCC(=O)NC7=O)C8=O)CC6)CC5)cc4)cc23)c1F` [Compound 234, N-{3-[5-(4-{4-[(4-{2-[(3S)-2,6-dioxopiperidin-3-yl]-1-oxo-2,3-dihydro-1H-isoindol-5-yl}piperidin-1-yl)methyl]piperidin-1-yl}phenyl)-1H-pyrrolo[2,3-b]pyridine-3-carbonyl]-2,4-difluorophenyl}propane-1-sulfonamide], in assay [1], the DC50 is less than 1 nM and the greatest degradation seen (Dmax) was greater than 70%. Also, in assay [2], the DC50 was 5 to 50 nM and the Dmax was 35 to 70%.
On to `CCCS(=O)(=O)Nc1ccc(F)c(C(=O)c2c[nH]c3ncc(-c4ccc(N5CCC(CN6CCC(c7ccc8c(c7)CN([C@@H]7CCC(=O)NC7=O)C8=O)CC6)CC5)cc4)cc23)c1F` [Compound 235, N-{3-[5-(4-{4-[(4-{2-[(3R)-2,6-dioxopiperidin-3-yl]-1-oxo-2,3-dihydro-1H-isoindol-5-yl}piperidin-1-yl)methyl]piperidin-1-yl}phenyl)-1H-pyrrolo[2,3-b]pyridine-3-carbonyl]-2,4-difluorophenyl}propane-1-sulfonamide], for which the results for the DC50 in assay [1] and in assay [2] were 1 to 10 nM and 5 to 50 nM, respectively. Further, the greatest degradation seen (Dmax) in assay [1] was greater than 70%; in assay [2] it was 35 to 70%.
As for `CCCS(=O)(=O)Nc1ccc(F)c(C(=O)c2c[nH]c3ncc(-c4ccc(N5CCC(CN6CCC(c7ccc8c(c7)CN(C7CCC(=O)NC7=O)C8=O)CC6)CC5)cc4)cc23)c1F` (stereo not shown) [Compound 236, N-[3-(5-{4-[4-({4-[2-(2,6-dioxopiperidin-3-yl)-1-oxo-2,3-dihydro-1H-isoindol-5-yl]piperidin-1-yl}methyl)piperidin-1-yl]phenyl}-1H-pyrrolo[2,3-b]pyridine-3-carbonyl)-2,4-difluorophenyl]propane-1-sulfonamide], in assay [1], the DC50 was less than 1 nM and the Dmax was greater than 70%. Further, in assay [2], the DC50 lay in the range of 5 to 50 nM and the maximal degradation (Dmax) is 35 to 70%.
Turning to `CCCS(=O)(=O)Nc1ccc(F)c(C(=O)c2c[nH]c3ncc(-c4ccc(N5CC6(CN(CC7CCN(c8cc9c(c(OC)c8)C(=O)N([C@H]8CCC(=O)NC8=O)C9)CC7)C6)C5)cc4)cc23)c1F` [Compound 237, N-{3-[5-(4-{6-[(1-{2-[(3S)-2,6-dioxopiperidin-3-yl]-7-methoxy-1-oxo-2,3-dihydro-1H-isoindol-5-yl}piperidin-4-yl)methyl]-2,6-diazaspiro[3.3]heptan-2-yl}phenyl)-1H-pyrrolo[2,3-b]pyridine-3-carbonyl]-2,4-difluorophenyl}propane-1-sulfonamide], in assay [1], the 50% degradation concentration (DC50) was less than 1 nM and the maximal degradation (Dmax) is greater than 70%. For the same compound, in assay [2], the 50% degradation concentration (DC50) lay in the range of 5 to 50 nM and the Dmax was in the range of 35 to 70%.
As to `CCCS(=O)(=O)Nc1ccc(F)c(C(=O)c2c[nH]c3ncc(-c4ccc(N5CC6(CN(CC7CCN(c8cc9c(c(OC)c8)C(=O)N([C@@H]8CCC(=O)NC8=O)C9)CC7)C6)C5)cc4)cc23)c1F` [Compound 238, N-{3-[5-(4-{6-[(1-{2-[(3R)-2,6-dioxopiperidin-3-yl]-7-methoxy-1-oxo-2,3-dihydro-1H-isoindol-5-yl}piperidin-4-yl)methyl]-2,6-diazaspiro[3.3]heptan-2-yl}phenyl)-1H-pyrrolo[2,3-b]pyridine-3-carbonyl]-2,4-difluorophenyl}propane-1-sulfonamide], in assay [1], the DC50 lay within 1 to 10 nM and the Dmax was greater than 70%. For the same compound, in assay [2], the half-maximal degradation concentration (DC50) was in the range of 5 to 50 nM and the Dmax lay in the range of 35 to 70%.
The corresponding values for `C[C@H]1C[C@@H](CN2CCC(c3ccc4c(c3)CN([C@H]3CCC(=O)NC3=O)C4=O)CC2)CCN1c1ccc(-c2cnc3[nH]cc(C(=O)c4c(F)ccc(NS(=O)(=O)N5CC[C@@H](F)C5)c4F)c3c2)cc1` [Compound 239, (3R)-N-[3-(5-{4-[(2S,4S)-4-[(4-{2-[(3S)-2,6-dioxopiperidin-3-yl]-1-oxo-2,3-dihydro-1H-isoindol-5-yl}piperidin-1-yl)methyl]-2-methylpiperidin-1-yl]phenyl}-1H-pyrrolo[2,3-b]pyridine-3-carbonyl)-2,4-difluorophenyl]-3-fluoropyrrolidine-1-sulfonamide] are 1 to 10 nM, greater than 70%, 5 to 50 nM and 35 to 70%.
In the case of `C[C@H]1C[C@@H](CN2CCC(c3ccc4c(c3)CN([C@@H]3CCC(=O)NC3=O)C4=O)CC2)CCN1c1ccc(-c2cnc3[nH]cc(C(=O)c4c(F)ccc(NS(=O)(=O)N5CC[C@@H](F)C5)c4F)c3c2)cc1` [Compound 240, (3R)-N-[3-(5-{4-[(2S,4S)-4-[(4-{2-[(3R)-2,6-dioxopiperidin-3-yl]-1-oxo-2,3-dihydro-1H-isoindol-5-yl}piperidin-1-yl)methyl]-2-methylpiperidin-1-yl]phenyl}-1H-pyrrolo[2,3-b]pyridine-3-carbonyl)-2,4-difluorophenyl]-3-fluoropyrrolidine-1-sulfonamide], the 50% degradation concentration (DC50) in assay [1] lay in the range of 1 to 10 nM; in assay [2], 5 to 50 nM. The Dmax is greater than 70% in assay [1] and 35 to 70% in assay [2].
The corresponding values for `C[C@@H]1C[C@H](CN2CCC(c3ccc4c(c3)CN([C@H]3CCC(=O)NC3=O)C4=O)CC2)CCN1c1ccc(-c2cnc3[nH]cc(C(=O)c4c(F)ccc(NS(=O)(=O)N5CC[C@@H](F)C5)c4F)c3c2)cc1` [Compound 241, (3R)-N-[3-(5-{4-[(2R,4R)-4-[(4-{2-[(3S)-2,6-dioxopiperidin-3-yl]-1-oxo-2,3-dihydro-1H-isoindol-5-yl}piperidin-1-yl)methyl]-2-methylpiperidin-1-yl]phenyl}-1H-pyrrolo[2,3-b]pyridine-3-carbonyl)-2,4-difluorophenyl]-3-fluoropyrrolidine-1-sulfonamide] are 1 to 10 nM, 5 to 50 nM, greater than 70% and 35 to 70%.
The corresponding values for `C[C@@H]1C[C@H](CN2CCC(c3ccc4c(c3)CN([C@@H]3CCC(=O)NC3=O)C4=O)CC2)CCN1c1ccc(-c2cnc3[nH]cc(C(=O)c4c(F)ccc(NS(=O)(=O)N5CC[C@@H](F)C5)c4F)c3c2)cc1` [Compound 242, (3R)-N-[3-(5-{4-[(2R,4R)-4-[(4-{2-[(3R)-2,6-dioxopiperidin-3-yl]-1-oxo-2,3-dihydro-1H-isoindol-5-yl}piperidin-1-yl)methyl]-2-methylpiperidin-1-yl]phenyl}-1H-pyrrolo[2,3-b]pyridine-3-carbonyl)-2,4-difluorophenyl]-3-fluoropyrrolidine-1-sulfonamide] are 1 to 10 nM, 5 to 50 nM, greater than 70% and 35 to 70%.
The corresponding values for `CCCS(=O)(=O)Nc1ccc(F)c(C(=O)c2c[nH]c3ncc(-c4ccc(N5CCN(CC6CCN(c7ccc8c(c7)CN([C@H]7CCC(=O)NC7=O)C8=O)CC6)CC5)cc4)cc23)c1F` [Compound 243, N-{3-[5-(4-{4-[(1-{2-[(3S)-2,6-dioxopiperidin-3-yl]-1-oxo-2,3-dihydro-1H-isoindol-5-yl}piperidin-4-yl)methyl]piperazin-1-yl}phenyl)-1H-pyrrolo[2,3-b]pyridine-3-carbonyl]-2,4-difluorophenyl}propane-1-sulfonamide] are 1 to 10 nM, 5 to 50 nM, greater than 70% and 35 to 70%.
For the compound `CCCS(=O)(=O)Nc1ccc(F)c(C(=O)c2c[nH]c3ncc(-c4ccc(N5CCN(CC6CCN(c7ccc8c(c7)CN(C7CCC(=O)NC7=O)C8=O)CC6)CC5)cc4)cc23)c1F` (stereo not shown) [Compound 244, N-[3-(5-{4-[4-({1-[2-(2,6-dioxopiperidin-3-yl)-1-oxo-2,3-dihydro-1H-isoindol-5-yl]piperidin-4-yl}methyl)piperazin-1-yl]phenyl}-1H-pyrrolo[2,3-b]pyridine-3-carbonyl)-2,4-difluorophenyl]propane-1-sulfonamide], in assay [1], the DC50 fell in the range of 1 to 10 nM and the Dmax is greater than 70%. In addition, in assay [2], the half-maximal degradation concentration (DC50) lay within 5 to 50 nM and the Dmax was in the range of 35 to 70%.
The corresponding values for `CCCS(=O)(=O)Nc1ccc(F)c(C(=O)c2c[nH]c3ncc(-c4ccc(N5CCC(CN6CCN(c7ccc8c(c7)CN([C@H]7CCC(=O)NC7=O)C8=O)CC6)CC5)cc4)cc23)c1F` [Compound 245, N-{3-[5-(4-{4-[(4-{2-[(3S)-2,6-dioxopiperidin-3-yl]-1-oxo-2,3-dihydro-1H-isoindol-5-yl}piperazin-1-yl)methyl]piperidin-1-yl}phenyl)-1H-pyrrolo[2,3-b]pyridine-3-carbonyl]-2,4-difluorophenyl}propane-1-sulfonamide] are 1 to 10 nM, greater than 70%, 5 to 50 nM and 35 to 70%.

The values above are taken from patent US12180193B2, “Accelerating fibrosarcoma protein degrading compounds and associated methods of use” (Arvinas Operations, Inc., priority 2020, dated 2024).
